Columns and labels:
OATP = experiment: Uptake of estrone-3-sulfate (ES) (OATP transport activity); type: cell-based, human; conditions: BSP 0.2 mmol/L; cells induced to differentiate using 8-Br-cAMP and IBMX
Protocol: (§1) After completion of induction of differentiation, incubation was performed at 37° C. or 4° C. with an uptake solution containing tritium-labeled Gly-Sar or ES. In the Gly-Sar uptake experiment, there was used an uptake solution containing 137 mmol/L sodium chloride, 5.4 mmol/L potassium chloride, 0.81 mmol/L magnesium sulfate, 0.44 mmol/L potassium dihydrogen phosphate, 0.34 mmol/L disodium hydrogen phosphate, 1.3 mmol/L calcium chloride, 4.2 mmol/L sodium hydrogen carbonate, 5.6 mmol/L D-glucose and 10 mmol/L MES and having a pH of 6.0. In the ES uptake experiment, there was used an uptake solution containing 137 mmol/L sodium chloride, 5.4 mmol/L potassium chloride, 0.81 mmol/L magnesium sulfate, 0.44 mmol/L potassium dihydrogen phosphate, 0.34 mmol/L disodium hydrogen phosphate, 1.3 mmol/L calcium chloride, 4.2 mmol/L sodium hydrogen carbonate, 5.6 mmol/L D-glucose, and 10 mmol/L HEPES and having a pH of 7.4. After completion of incubation, uptake was stopped by washing the cells with the ice-cold uptake solution. Thereafter, the cells were solubilized with a 0.2 M sodium hydroxide solution containing 0.5% sodium dodecyl sulfate (SDS), and a scintillation solution was added. The intracellular uptake of Gly-Sar or ES was calculated from the radioactivity measured using a liquid scintillation counter.

PEPT1 = target: T1, PEPT1 (Homo sapiens, UniProt P46059); experiment: Uptake of glycylsarcosine (Gly-Sar) (PEPT1 transport activity); type: cell-based; conditions: ibuprofen 3 mmol/L
T1 construct: uptake of glycylsarcosine (Gly-Sar) in the differentiated intestinal epithelial cell-like cells (PEPT1 transport activity); endogenous in cells; host or cells: human iPS cell (iPS-51: Windy)-derived intestinal epithelial cell-like cells
T1 sequence (P46059 1-708): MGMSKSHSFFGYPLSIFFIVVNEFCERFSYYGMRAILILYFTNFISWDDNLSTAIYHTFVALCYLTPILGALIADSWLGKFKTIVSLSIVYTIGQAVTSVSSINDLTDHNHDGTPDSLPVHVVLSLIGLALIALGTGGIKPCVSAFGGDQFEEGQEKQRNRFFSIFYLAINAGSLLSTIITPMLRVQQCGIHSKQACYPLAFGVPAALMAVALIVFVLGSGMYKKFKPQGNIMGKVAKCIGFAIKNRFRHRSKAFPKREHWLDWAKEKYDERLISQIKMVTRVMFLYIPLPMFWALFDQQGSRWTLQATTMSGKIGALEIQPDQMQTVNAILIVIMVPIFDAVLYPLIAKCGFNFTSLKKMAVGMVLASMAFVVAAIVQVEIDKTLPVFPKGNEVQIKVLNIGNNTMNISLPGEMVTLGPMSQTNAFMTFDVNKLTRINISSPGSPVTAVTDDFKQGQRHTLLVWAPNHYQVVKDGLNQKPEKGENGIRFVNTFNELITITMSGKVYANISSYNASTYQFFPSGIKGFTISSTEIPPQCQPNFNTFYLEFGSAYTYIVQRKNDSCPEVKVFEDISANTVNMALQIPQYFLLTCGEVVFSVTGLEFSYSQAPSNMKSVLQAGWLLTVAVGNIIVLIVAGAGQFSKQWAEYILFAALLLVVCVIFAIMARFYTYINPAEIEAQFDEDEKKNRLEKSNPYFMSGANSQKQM
Protocol: as §1

CYP3A4 [1] = experiment: Metabolic activity of midazolam (CYP3A4 metabolic activity) in differentiated intestinal epithelial cell-like cells; type: cell-based, human; conditions: VD3 10 nmol/L; cells induced to differentiate using 8-Br-cAMP and IBMX; midazolam 100 μmol/L
Protocol: The metabolic activity was calculated from the amount of 1-hydroxymidazolam in the medium measured using a liquid chromatography-mass spectrometer (LC-MS/MS). After completion of the experiment on metabolism, protein quantification was carried out, and the metabolic activity was corrected by the amount of protein.

CYP3A4 [2] = test system: CYP3A4
mucin 2 = experiment: Expression (mRNA level) of mucin 2 in iPS cell-derived intestinal epithelial cell-like cells; conditions: for expression (mRNA level) of mucin 2 (mucosa protecting action): added for 6 days, irsogladine 10, 40 μM, rebamipide 50, 100, 250, 1000 μM, vs control
ALK7 = target: T2, ALK7 (Homo sapiens, UniProt Q8NER5); conditions: cited from earlier work
T2 sequence (Q8NER5 21-493): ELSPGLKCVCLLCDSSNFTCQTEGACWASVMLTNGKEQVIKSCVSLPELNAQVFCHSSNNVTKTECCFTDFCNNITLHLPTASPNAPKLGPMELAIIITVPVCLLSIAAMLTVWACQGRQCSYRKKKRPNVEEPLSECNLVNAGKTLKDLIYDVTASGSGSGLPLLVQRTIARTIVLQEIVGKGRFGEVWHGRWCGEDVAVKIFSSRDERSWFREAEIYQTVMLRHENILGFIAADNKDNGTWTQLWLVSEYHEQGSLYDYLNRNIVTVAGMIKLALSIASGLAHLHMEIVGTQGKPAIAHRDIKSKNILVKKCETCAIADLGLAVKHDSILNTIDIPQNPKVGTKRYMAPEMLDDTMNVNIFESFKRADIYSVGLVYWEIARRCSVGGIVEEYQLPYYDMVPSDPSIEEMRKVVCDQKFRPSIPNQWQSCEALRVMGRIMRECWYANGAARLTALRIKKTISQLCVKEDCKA

ALK5 = target: T3, ALK5 (Homo sapiens, UniProt P36897); conditions: cited from earlier work
T3 sequence (P36897 34-503): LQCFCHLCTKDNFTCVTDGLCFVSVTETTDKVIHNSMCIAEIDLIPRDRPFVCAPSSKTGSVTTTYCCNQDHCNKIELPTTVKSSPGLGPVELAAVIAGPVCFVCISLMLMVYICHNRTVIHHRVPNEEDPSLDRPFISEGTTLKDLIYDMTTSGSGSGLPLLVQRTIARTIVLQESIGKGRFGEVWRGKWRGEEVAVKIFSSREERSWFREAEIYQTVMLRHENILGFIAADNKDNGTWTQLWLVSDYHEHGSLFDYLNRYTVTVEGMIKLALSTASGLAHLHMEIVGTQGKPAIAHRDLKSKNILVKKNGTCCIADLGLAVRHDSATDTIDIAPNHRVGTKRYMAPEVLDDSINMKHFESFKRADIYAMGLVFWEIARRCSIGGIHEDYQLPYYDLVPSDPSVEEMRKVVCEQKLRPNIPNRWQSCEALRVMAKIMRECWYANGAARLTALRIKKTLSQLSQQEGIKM

ALK4 = target: T4, ALK4 (Homo sapiens, UniProt P36896); conditions: cited from earlier work
T4 sequence (P36896 24-505): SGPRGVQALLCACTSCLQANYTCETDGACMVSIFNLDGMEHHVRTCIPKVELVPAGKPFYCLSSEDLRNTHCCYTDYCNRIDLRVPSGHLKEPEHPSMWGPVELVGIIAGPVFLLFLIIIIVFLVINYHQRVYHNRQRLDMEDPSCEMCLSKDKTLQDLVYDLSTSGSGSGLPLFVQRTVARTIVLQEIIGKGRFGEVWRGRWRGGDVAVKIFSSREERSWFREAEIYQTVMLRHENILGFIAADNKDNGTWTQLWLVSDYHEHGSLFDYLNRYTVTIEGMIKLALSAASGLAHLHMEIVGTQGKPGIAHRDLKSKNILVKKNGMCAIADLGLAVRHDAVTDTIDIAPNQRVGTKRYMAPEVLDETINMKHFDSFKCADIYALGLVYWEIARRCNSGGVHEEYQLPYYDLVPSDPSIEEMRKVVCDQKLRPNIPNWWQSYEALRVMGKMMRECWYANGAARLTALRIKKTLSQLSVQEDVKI

Q: For `O=C1OC(c2ccc(O)c(S(=O)(=O)O)c2)(c2ccc(O)c(S(=O)(=O)O)c2)c2c(Br)c(Br)c(Br)c(Br)c21` [BSP, bromsulphthalein], which “uptake of ES in the presence of inhibitor” value (OATP) is on record?
A: significantly reduced

Q: Which “Gly-Sar uptake in the presence of inhibitor” value (PEPT1; cells by the conventional differentiation method) does the source give for `CC(C)Cc1ccc(C(C)C(=O)O)cc1` (centres unmarked) [ibuprofen] here?
A: significantly reduced

Q: What about the “Gly-Sar uptake in the presence of inhibitor” value (PEPT1; cells induced to differentiate using 8-Br-cAMP and IBMX) of the same compound?
A: significantly reduced

Q: With `C=C1/C(=C\C=C2/CCC[C@]3(C)[C@@H]([C@H](C)CCCC(C)(C)O)CC[C@@H]23)C[C@@H](O)C[C@@H]1O` [1α,25-dihydroxyvitamin D3] as the compound, how does the “activity of CYP3A4 (1-hydroxymidazolam formation) upon inducer treatment” value (CYP3A4 [1]) read?
A: significantly increased

Q: And the “induction of CYP3A4 expression” value (CYP3A4 [2])?
A: observed

Q: With `Nc1nc(N)nc(-c2cc(Cl)ccc2Cl)n1` [irsogladine] as the compound, how does the “expression (mRNA level) of mucin 2 (mucosa protecting action)” value (mucin 2) read?
A: increased

Q: Which “expression (mRNA level) of mucin 2 (mucosa protecting action)” value (mucin 2) does the source give for `O=C(NC(Cc1cc(=O)[nH]c2ccccc12)C(=O)O)c1ccc(Cl)cc1` (centres unmarked) [rebamipide] here?
A: increased

Q: For `Cc1cccc(-c2nn(C(=S)Nc3ccccc3)cc2-c2ccnc3ccccc23)n1` [A-83-01], which “inhibitory activity against TGF-β receptor ALK7” value (ALK7) is on record?
A: shows inhibitory activity

Q: And the “inhibitory activity against TGF-β receptor ALK5” value (ALK5)?
A: shows inhibitory activity

Q: What about the “inhibitory activity against TGF-β receptor ALK4” value (ALK4) of the same compound?
A: shows inhibitory activity

Q: Which “expression (mRNA level) of mucin 2 (mucosa damaging action)” value (mucin 2; ketoprofen 200 μM for 6 days, excepted from the decrease seen with NSAIDs) does the source give for `CC(C(=O)O)c1cccc(C(=O)c2ccccc2)c1` (centres unmarked) [ketoprofen] here?
A: except for ketoprofen-200
